From patent US20040138826A1, “Experimental design and data analytical methods for detecting and characterizing interactions and interaction thresholds on fixed ratio rays of polychemical mixtures and subsets thereof” (priority 2002, published 2004)
Values joined by “and” are separate entries in the source; they are usually repeats but may differ in a detail not shown here. Equal values may be shown once. “Also recorded” adds a separate entry of the source. Read-outs that look alike come from different tables or passages of the source.

How the values were obtained:
rats = details: for effect when given alone on gait abnormality: single chemical data, rats
Description: The endpoint of interest is neurotoxicity in rats as measured by a gait score dichotomized to indicate presence or absence of a gait abnormality (i.e., incoordination, loss of balance, etc.). The fixed-ratio ray under study was chosen based on the relative dietary exposure estimates of each chemical as projected by the U.S. EPA Dietary Exposure Evaluation Model (DEEM) and is given by (0.040:0.002:0.031:0.825:0.102) for ACE, DIA, CPF, MAL, DIM, respectively. […] (Note: Such a strategy can be extended for identifying the impact of the unidentified fraction in a complex mixture.)
The biological endpoint of interest is an indicator of neurotoxicity based on evidence of the presence or absence of a gait abnormality (Moser, 1995). In order to appropriately constrain the probability of a response to be between 0 and 1, a logit link function was used, i.e., g(μ)=log(μ/(1−μ)). It was assumed throughout that the variance changes as a binomial random variable such that Var(Y)=τμ(1−μ) (e.g., McCullagh and Nelder, 1989).
The resulting mixture experiment consisted of a vehicle control (n=14), ‘positive controls’ for ACE alone (6 and 30 mg/kg; n=6, 14, respectively), CPF alone (10, 20, 30 mg/kg; n=6, 8, 6, respectively), DIAZ alone (50 and 125 mg/kg; n=6, 14, respectively), MAL alone (350 mg/kg; n=14), DIM alone (10, 25, 50 mg/kg; n=6, 8, 6, respectively), and six total dose mixture concentrations (10, 55, 100, 200, 300 and 450 mg/kg; n=12 rats per dose group for a total of 72 rats exposed to a mixture of the chemicals) at a fixed mixing ratio ray of (0.040:0.002:0.031:0.825:0.102) for (ACE:DIA:CPF:MAL:DIM). Similarly, the design for a second fixed-ratio ray was based on a reduced number of the pesticides (omitting MAL) with the remaining pesticides at the same relative proportions as in the ‘full’ mixture study. The experiment consisted of a vehicle control (n=8), positive controls (n=8 per group) for ACE (30 mg/kg), CPF (20 mg/kg), DIA (125 mg/kg), and DIM (25 mg/kg), and six total dose mixture concentrations (1.75, 9.6, 17.5, 35, 52.5, and 78.8 mg/kg; n=12 rats per dose group) at a fixed mixing ratio ray of (0.229:0.011:0.177:0.583) for (ACE:DIA:CPF:DIM). Casey et al (2003a,b) describe the motor activity data in the mixture of these five pesticides.

healthy adult rats = details: for Threshold Estimate: dose threshold for motor activity, threshold additivity model, SAR analysis; for Threshold Estimate / Mean Motor Activity Response: rats; for Mean Motor Activity Response: single chemical
Description: To motivate the use of these fixed-ratio mixture ray designs consider a study which examines exposure to environmentally relevant pesticides. The OP pesticides chosen for study, based on usage patterns (i.e. pesticides used on same or similar crops) and market share (i.e. highest volume pesticides), were acephate, diazinon, chlorpyrifos, dimethoate, and malathion. Motor activity, a count of the number of passes made across a central area, was used to assess toxicity in healthy adult rats. A full five-pesticide fixed-ratio ray, given by (0.040:0.002:0.031:0.102:0.825) for (acephate:diazinon:chlorpyrifos:dimethoate:malathion), was chosen based on relative dietary exposure estimates of each chemical as projected by the U.S. EPA Dietary Exposure Evaluation Model (DEEM).
Single chemical data were collected approximately 18 months prior to the data along the full fixed-ration ray.
Fixed-ratio ray designs were chosen to study interactions among combinations of multiple pesticides. The pesticides chosen for these studies, based on usage patterns (i.e., pesticides used on the same or similar crops) and market share (i.e., highest volume pesticides), were acephate, diazinon, chlorpyrifos, dimethoate, and malathion. Motor activity, a count of the number of passes made across a central area, was chosen to assess the toxicity of these pesticides in healthy adult rats. The fixed-ratio ray under study was chosen based on the relative dietary exposure estimates of each chemical as projected by the U.S. EPA Dietary Exposure Evaluation Model (DEEM) and is given by (0.040:0.002:0.031:0.102:0.825) for acephate, diazinon, chlorpyrifos, dimethoate, and malathion respectively.
The five-pesticide study described in the introduction is used to illustrate the sample size and power methods developed in Section 3. Due to the high potential of aggregate exposure to OP pesticides, researchers were initially interested in testing the hypothesis of additivity, given in (5), along the full five-pesticide fixed-ratio ray, given by (0.040:0.002:0.031:0.102:0.825) for ([…]), that represents relative dietary exposure estimates. Single chemical data were collected and used to estimate an additivity model along the ray (analysis not shown). Since, the motor activity response is a count variable it was assumed that V(m)=m and the log link function (McCullagh and Nelder, 1989) was used to fit the generalized linear additivity model described in Section 2. […] Eighty-six animals were considered. Fourteen animals were evaluated in the control group. Twelve animals each were evaluated at 10, 55, 100, 200, 300, and 450 mg/kg. Summary statistics for the single chemical and mixture data are provided in the appendix.
The five-pesticide study described in the introduction is used to illustrate the design methodology developed in the following sections. Due to the high potential for aggregate exposure to OP pesticides, researchers were initially interested in testing the hypothesis of additivity, given in (4), along the full five-pesticide fixed-ratio ray, given by (0.040:0.002:0.031:0.102:0.825) for (acephate:diazinon:chlorpyrifos:dimethoate:malathion). Since motor activity response is a count variable, it was assumed that V(μ)=μ and the log link function (McCullagh and Nelder, 1989) was used to fit the generalized linear additivity model given in (1). […] Eighty-six animals were considered. Fourteen animals were evaluated in the control group. Twelve animals each were evaluated at 10, 55, 100, 200, 300, and 450 mg/kg.

| Structure (SMILES) | effect when given alone on gait abnormality (rats) | Threshold Estimate (healthy adult rats) [mg/kg] | Mean Motor Activity Response (healthy adult rats; dose 5 mg/kg) | Mean Motor Activity Response (healthy adult rats; dose 10 mg/kg) | Mean Motor Activity Response (healthy adult rats; dose 25 mg/kg) | Mean Motor Activity Response (healthy adult rats; dose 50 mg/kg) | Mean Motor Activity Response (healthy adult rats; dose 75 mg/kg) | Mean Motor Activity Response (healthy adult rats; dose 30 mg/kg) | also measured |
| --- | --- | --- | --- | --- | --- | --- | --- | --- | --- |
| CNC(=O)CSP(=S)(OC)OC [Dimethoate, dimethoate] | significant effect on a gait abnormality | 8.72 | 188.25 | 188.63 | 107.75 | 103.75 | 101.50 | – | – |
| COP(=O)(NC(C)=O)SC (centres unmarked) [Acephate, acephate] | significant effect on a gait abnormality | 6.30 | – | 165.88 | – | – | – | 108.75 | Mean Motor Activity Response (healthy adult rats; dose 3 mg/kg): 200.13; Mean Motor Activity Response (healthy adult rats; dose 60 mg/kg): 58.25; Mean Motor Activity Response (healthy adult rats; dose 120 mg/kg): 33.25 |
| CCOC(=O)CC(SP(=S)(OC)OC)C(=O)OCC (centres unmarked) [Malathion, malathion] | – | – | – | – | – | – | – | – | effect of MAL on the mixture, gait abnormality (rats; adjusted comparison of full and reduced rays, listed as MAL): significantly (p=0.016) changes the shape of the dose response curve in the full ray; also recorded: interacts with at least some or all of the other four pesticides; also recorded: interacts with the other pesticides; effect when given alone on gait abnormality (rats; listed as MAL): not dose responsive; effect of malathion on the mixture, motor activity (healthy adult rats; SAR method, full vs reduced ray, p-value 0.068): marginal evidence that malathion has an effect on the mixture; Mean Motor Activity Response (healthy adult rats; dose 100 mg/kg): 201.5; Mean Motor Activity Response (healthy adult rats; dose 500 mg/kg): 203.75 |
| CCOP(=S)(OCC)Oc1nc(Cl)c(Cl)cc1Cl [Chlorpyrifos, chlorpyrifos] | significant effect on a gait abnormality | 4.69 | 213.37 | 178.31 and 172.13 | 162.00 | 49.44 and 56.38 | – | 80.13 | Mean Motor Activity Response (healthy adult rats; dose 1 mg/kg): 213.13; Mean Motor Activity Response (healthy adult rats; dose 2 mg/kg): 192.75; Mean Motor Activity Response (healthy adult rats; dose 20 mg/kg): 157.13 |
| CCOP(=S)(OCC)Oc1cc(C)nc(C(C)C)n1 [Diazinon, diazinon] | significant effect on a gait abnormality | 25.0 | 190.88 | – | 215.56 | 183.13 | 165.69 | – | Mean Motor Activity Response (healthy adult rats; dose 125 mg/kg): 152.00; Mean Motor Activity Response (healthy adult rats; dose 150 mg/kg): 76.5; Mean Motor Activity Response (healthy adult rats; dose 250 mg/kg): 61.25 |
